# Measurements from patent US20220204497A1, “NOVEL COMPOUND HAVING ANTICANCER ACTIVITY, AND METHOD FOR PRODUCING SAME” (MEDICINAL BIOCONVERGENCE RESEARCH CENTER, priority 2019, published 2022).
# Legend:
# [1] = tested on: A549 cells; assay: Cell viability by MTT method in A549 cells; format: cell-based; set-up: concentration or dose not given beside the values; conditions: 72 hours treatment
# [2] = target: T1, AIMP2-DX2 (Homo sapiens, UniProt Q13155); assay: DX2-nanoluciferase assay (DX2 expression change) in transfected A549 cells; conditions: for DX-Nanoluciferase activity (40 μM) / DX-Nanoluciferase activity (10 μM): 4 hours treatment, A549 cells transfected with nanoluciferase-DX2; for DX-Nanoluciferase activity (40 μM) / inhibition at 40 µM: inhibitory effect on AIMP2-DX2 expression; for inhibition at 40 µM / inhibition at 10 µM: A549, 4 h; for inhibition at 40 µM: read-out: DX-Nanoluciferase activity (40 μM), 40 μM, 4 hours treatment, A549 cells transfected with nanoluciferase-DX2; for inhibition at 10 µM: read-out: DX-Nanoluciferase activity (10 μM), 10 μM, 4 hours treatment, A549 cells transfected with nanoluciferase-DX2
# T1 sequence (Q13155 1-251 isoform Q13155-2): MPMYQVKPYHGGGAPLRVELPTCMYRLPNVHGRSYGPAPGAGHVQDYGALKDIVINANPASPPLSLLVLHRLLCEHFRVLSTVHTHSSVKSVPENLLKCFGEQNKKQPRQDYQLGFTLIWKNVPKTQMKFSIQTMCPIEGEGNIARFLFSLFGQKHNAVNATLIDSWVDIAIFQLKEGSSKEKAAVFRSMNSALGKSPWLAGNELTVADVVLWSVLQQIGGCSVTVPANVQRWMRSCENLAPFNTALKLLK
# Method: After cloning DX2 into a plasmid expressing nanoluciferase, the plasmid was transfected into A549 cells. Transfected cells were seeded 1×10^4 per well in a 96-well plate and stabilized for 12 hours. […] Cell viability was measured by the MTT method after 72 hours of treatment with each concentration of the compound in A549 cells.
Compound,Cell Viability (% inhibition) (A549) [1],DX-Nanoluciferase activity (40 μM) [2],inhibition at 40 µM [2] [%],inhibition at 10 µM [2] [%],DX-Nanoluciferase activity (10 μM) [2]
"Cc1ccc(S(=O)(=O)N[C@@H](Cc2c[nH]c3ccccc23)C(=O)Nc2nc(C)cs2)cc1 [Compound 111, (S)-3-(1H-indol-3-yl)-2-(4-methylphenylsulfonamido)-N-(4-methylthiazol-2-yl)propanamide]",11.65 ± 6.05%,25.61 ± 22.32,–,–,–
"Cc1ccc(S(=O)(=O)N[C@@H](Cc2c[nH]c3ccccc23)C(=O)Nc2ncc(C)s2)cc1 [Compound 112, (S)-3-(1H-indol-3-yl)-2-(4-methylphenylsulfonamido)-N-(5-methylthiazol-2-yl)propanamide]",15.01 ± 6.55%,–,61.5 ± 5.19,–,–
"COC(=O)c1ccc(S(=O)(=O)N[C@@H](Cc2c[nH]c3ccccc23)C(=O)Nc2ccc(N3CCOCC3)cc2)cc1 [Compound 113, (S)-Methyl 4-(N-(3-(1H-indol-3-yl)-1-(4-morpholinophenylamino)-1-oxopropan-2-yl)sulfamoyl)benzoate]",4.67 ± 3.85%,–,–,15.1 ± 6.22,–
"CCOC(=O)c1ccc(S(=O)(=O)N[C@@H](Cc2c[nH]c3ccccc23)C(=O)Nc2ccc(N3CCOCC3)cc2)cc1 [Compound 114, (S)-Ethyl 4-(N-(3-(1H-indol-3-yl)-1-(4-morpholinophenylamino)-1-oxopropan-2-yl)sulfamoyl)benzoate]",47.88 ± 0.53%,–,–,3.48 ± 8.58,–
"Cc1ccc(S(=O)(=O)N[C@@H](Cc2ccc(C(=O)c3ccccc3)cc2)C(=O)Nc2ccc(N3CCOCC3)cc2)cc1 [Compound 115, (S)-3-(4-Benzoylphenyl)-2-(4-methylphenylsulfonamido)-N-(4-morpholinophenyl)propanamide]",0.35 ± 0.67%,–,–,2.16 ± 6.66,–
"CNC(=O)c1ccc(S(=O)(=O)N[C@@H](Cc2c[nH]c3ccccc23)C(=O)Nc2ccc(N3CCOCC3)cc2)cc1 [Compound 116, (S)-4-(N-(3-(1H-indol-3-yl)-1-(4-morpholinophenylamino)-1-oxopropan-2-yl)sulfamoyl)-N-methylbenzamide]",34.22 ± 7.94%,–,–,-0.11 ± 15.1,–
"Cc1ccc(S(=O)(=O)N[C@@H](Cc2ccc3ccccc3c2)C(=O)Nc2ccc(N3CCOCC3)cc2)cc1 [Compound 117, (S)-2-(4-Methylphenylsulfonamido)-N-(4-morpholinophenyl)-3-(naphthalen-2-yl)propanamide]",4.59 ± 6.86%,–,–,-2.56 ± 9.56,–
"CC(C)(C)OC(=O)N[C@@H](Cc1c[nH]c2ccccc12)C(=O)Nc1ccc(N2CCOCC2)cc1 [Compound 118, (S)-tert-Butyl 3-(1H-Indol-3-yl)-1-(4-morpholinophenylamino)-1-oxopropan-2-ylcarbamate]",9.26 ± 7.63%,–,–,8.22 ± 5.02,–
"Cc1ccc(S(=O)(=O)N[C@@H](Cc2c[nH]c3ccccc23)C(=O)O)cc1 [Compound 119, (S)-3-(1-Indol-3-yl)-2-(4-methylphenylsulfonamido)propanoic acid]",1.59 ± 8.71%,–,–,–,14.92 ± 10.18
"COc1cc(N2CCN(C(=O)OC(C)(C)C)CC2)ccc1NC(=O)[C@H](Cc1c[nH]c2ccccc12)NS(=O)(=O)c1ccc(C)cc1 [Compound 120, (S)-tert-Butyl 4-(4-(3-(1H-indol-3-yl)-2-(4-methylphenylsulfonamido)propanamido)-3-methoxyphenyl)piperazine-1-carboxylate]",66.51 ± 1.24%,–,–,21.3 ± 14.2,–
"COc1cc(N2CCNCC2)ccc1NC(=O)[C@H](Cc1c[nH]c2ccccc12)NS(=O)(=O)c1ccc(C)cc1 [Compound 121, (S)-3-(1H-indol-3-yl)-N-(2-methoxy-4-(piperazin-1-yl)phenyl)-2-(4-methylphenylsulfonamido)propanamide]",51.15 ± 0.5%,–,–,41.7 ± 17.3,–
"Cc1ccc(S(=O)(=O)N[C@@H](Cc2c[nH]c3ccccc23)C(=O)Nc2ccc(N3CCN(C(=O)OC(C)(C)C)CC3)cc2)cc1 [Compound 122, (S)-tert-Butyl 4-(4-(3-(1H-indol-3-yl)-2-(4-methylphenylsulfonamido)propanamido)phenyl)piperazine-1-carboxylate]",69.45 ± 1.3%,–,–,38 ± 1.7,–
"COc1cc(N2CCOCC2)ccc1NC(=O)[C@H](Cc1c[nH]c2ccccc12)NS(=O)(=O)c1ccc(C)cc1 [Compound 123, (S)-3-(1H-indol-3-yl)-N-(2-methoxy-4-morpholinophenyl)-2-(4-methylphenylsulfonamido)propanamide]",34.01 ± 10.45%,–,–,22.4 ± 11.8,–
"Cc1ccc(S(=O)(=O)N[C@@H](Cc2c[nH]c3ccccc23)C(=O)Nc2ccc(N3CCNCC3)cc2)cc1 [Compound 124, (S)-3-(1H-indol-3-yl)-2-(4-methylphenylsulfonamido)-N-(4-(piperazin-1-yl)phenyl)propanamide]",16.44 ± 18.56%,–,–,20.9 ± 9.8,–
"Cc1ccc(S(=O)(=O)N[C@@H](Cc2c[nH]c3ccccc23)C(=O)OCc2ccccc2)cc1 [Compound 127, (S)-Benzyl 3-(1H-indol-3-yl)-2-(4-methylphenylsulfonamido)propanoate]",94.24 ± 0.54%,–,49.9 ± 1.6,–,–
"Cc1ccc(C(=O)N[C@@H](Cc2c[nH]c3ccccc23)C(=O)OCc2ccccc2)cc1 [Compound 128, (S)-Benzyl 3-(1H-indol-3-yl)-2-(4-methylbenzamido)propanoate]",63.08 ± 7.72%,–,36.8 ± 8.13,–,–
"Cc1ccc(C(=O)N[C@@H](Cc2c[nH]c3ccccc23)C(=O)Nc2ccc(N3CCOCC3)cc2)cc1 [Compound 129, (S)—N-(3-(1 Indol-3-yl)-1-(4-morpholinophenylamino)-1-oxopropan-2-yl)-4-methylbenzamide]",60.35 ± 3.98%,53.02 ± 9.60,–,–,–
"Cc1ccc(S(=O)(=O)NCC(=O)N2CCOCC2)cc1 [Compound 155, 4-Methyl-N-(2-morpholino-2-oxoethyl)benzenesulfonamide]",17.30 ± 0.81%,–,31.3 ± 4.4,–,–
"Cc1ccc(S(=O)(=O)NC2(C(=O)N3CCOCC3)CCCCC2)cc1 [Compound 156, 4-Methyl-N-(1-(morpholine-4-carbonyl)cyclohexyl)benzenesulfonamide]",13.51 ± 2.04%,–,-0.2 ± 6.6,–,–
"O=C(Nc1ccc(N2CCOCC2)cc1)[C@H](Cc1c[nH]c2ccccc12)NS(=O)(=O)c1ccc(O)cc1 [Compound 158, (S)-2-(4-Hydroxyphenylsulfonamido)-3-(1H-indol-3-yl)-N-(4-morpholinophenyl)propanamide]",24.87 ± ? .01%,–,–,-7.04 ± 4.87,–
"O=C(O)c1ccc(S(=O)(=O)N[C@@H](Cc2c[nH]c3ccccc23)C(=O)Nc2ccc(N3CCOCC3)cc2)cc1 [Compound 159, (S)-4-(N-(3-(1-indol-3-yl)-1-(4-morpholinophenylamino)-1-oxopropan-2-yl)sulfamoyl)benzoic acid]",24.60 ± ? .96%,–,–,–,1.75 ± 8.96 (10 μM)
"N[C@@H](Cc1c[nH]c2ccccc12)C(=O)Nc1ccc(N2CCOCC2)cc1 [Compound 160, (S)-2-Amino-3-(1-indol-3-yl)-N-(4-morpholinophenyl)propanamide]",15.52 ± 9.58%,–,–,–,14.92 ± 17.49 (10 μM)
